Numbers after ± are expanded uncertainties.
Assay: xn = mol fraction of the nth substance listed
Settings: 101 kPa, Liquid; for mass density: Vibrating tube method

CCCCC(C)O (stereo unspecified) [2-hexanol] + CC(=O)N(C)C
Settings	mass density, 298.15 K [kg/m3]	mass density, 303.15 K [kg/m3]	mass density, 308.15 K [kg/m3]	mass density, 313.15 K [kg/m3]	viscosity, 298.15 K [mPa·s]	viscosity, 303.15 K [mPa·s]	viscosity, 308.15 K [mPa·s]	viscosity, 313.15 K [mPa·s]
x2 = 0	810.1 ± 0.2	806.1 ± 0.2	802.1 ± 0.2	798 ± 0.2	4.1 ± 0.15	3.41 ± 0.12	2.82 ± 0.1	2.22 ± 0.083
x2 = 0.0817	816.9 ± 0.2	812.8 ± 0.2	808.6 ± 0.2	804.3 ± 0.2	3.46 ± 0.13	2.89 ± 0.11	2.42 ± 0.09	1.8 ± 0.068
x2 = 0.1606	824 ± 0.2	819.7 ± 0.2	815.4 ± 0.2	810.9 ± 0.2	2.87 ± 0.11	2.41 ± 0.09	2.05 ± 0.077	1.52 ± 0.058
x2 = 0.2405	831.5 ± 0.2	827.1 ± 0.2	822.7 ± 0.2	818.1 ± 0.2	2.35 ± 0.088	2 ± 0.075	1.76 ± 0.067	1.33 ± 0.051
x2 = 0.3506	842.9 ± 0.2	838.3 ± 0.2	833.8 ± 0.2	829 ± 0.2	1.82 ± 0.069	1.58 ± 0.06	1.44 ± 0.055	1.15 ± 0.045
x2 = 0.4404	852.9 ± 0.2	848.2 ± 0.2	843.6 ± 0.2	838.8 ± 0.2	1.54 ± 0.059	1.35 ± 0.052	1.25 ± 0.049	1.04 ± 0.041
x2 = 0.5601	867.5 ± 0.2	862.8 ± 0.2	858.1 ± 0.2	853.3 ± 0.2	1.29 ± 0.05	1.16 ± 0.045	1.06 ± 0.042	0.92 ± 0.037
x2 = 0.6505	879.6 ± 0.2	874.8 ± 0.2	870.1 ± 0.2	865.4 ± 0.2	1.14 ± 0.045	1.03 ± 0.041	0.94 ± 0.037	0.85 ± 0.034
x2 = 0.7405	892.6 ± 0.2	887.8 ± 0.2	883.2 ± 0.2	878.4 ± 0.2	1.03 ± 0.041	0.95 ± 0.038	0.87 ± 0.035	0.8 ± 0.032
x2 = 0.8504	909.9 ± 0.2	905.2 ± 0.2	900.7 ± 0.2	896.2 ± 0.2	0.97 ± 0.038	0.9 ± 0.036	0.82 ± 0.033	0.77 ± 0.031
x2 = 0.9405	925.4 ± 0.2	920.8 ± 0.2	916.5 ± 0.2	912.2 ± 0.2	0.95 ± 0.038	0.882 ± 0.035	0.81 ± 0.033	0.756 ± 0.031

CC(=O)N(C)C [N,N-dimethylethanamide] + CC(C)O
Settings	mass density, 298.15 K [kg/m3]	mass density, 303.15 K [kg/m3]	mass density, 308.15 K [kg/m3]	mass density, 313.15 K [kg/m3]	viscosity, 298.15 K [mPa·s]	viscosity, 303.15 K [mPa·s]	viscosity, 308.15 K [mPa·s]	viscosity, 313.15 K [mPa·s]
x1 = 0.081	796.1 ± 0.2	791.8 ± 0.2	787.4 ± 0.2	782.8 ± 0.2	1.68 ± 0.05	1.53 ± 0.05	1.39 ± 0.04	1.22 ± 0.04
x1 = 0.16	810.3 ± 0.2	806 ± 0.2	801.6 ± 0.2	797 ± 0.2	1.47 ± 0.04	1.32 ± 0.04	1.23 ± 0.04	1.1 ± 0.03
x1 = 0.2399	824.2 ± 0.2	819.9 ± 0.2	815.4 ± 0.2	810.9 ± 0.2	1.33 ± 0.04	1.19 ± 0.04	1.11 ± 0.03	1 ± 0.03
x1 = 0.3499	842.7 ± 0.2	838.2 ± 0.2	833.8 ± 0.2	829.2 ± 0.2	1.21 ± 0.04	1.08 ± 0.03	1.01 ± 0.03	0.92 ± 0.03
x1 = 0.4399	857.1 ± 0.2	852.7 ± 0.2	848.2 ± 0.2	842.9 ± 0.2	1.13 ± 0.03	1.03 ± 0.03	0.96 ± 0.03	0.87 ± 0.03
x1 = 0.5598	875.6 ± 0.2	871.1 ± 0.2	866.7 ± 0.2	862.2 ± 0.2	1.06 ± 0.03	0.97 ± 0.03	0.91 ± 0.03	0.82 ± 0.03
x1 = 0.6496	888.9 ± 0.2	884.4 ± 0.2	880 ± 0.2	875.6 ± 0.2	1.02 ± 0.03	0.94 ± 0.03	0.88 ± 0.03	0.8 ± 0.03
x1 = 0.7394	901.7 ± 0.2	897.2 ± 0.2	892.8 ± 0.2	888.5 ± 0.2	0.99 ± 0.03	0.92 ± 0.03	0.86 ± 0.03	0.78 ± 0.02
x1 = 0.8495	916.8 ± 0.2	912.4 ± 0.2	908 ± 0.2	903.7 ± 0.2	0.97 ± 0.03	0.9 ± 0.03	0.84 ± 0.03	0.76 ± 0.02
x1 = 0.9399	928.8 ± 0.2	924.3 ± 0.2	920 ± 0.2	915.6 ± 0.2	0.95 ± 0.03	0.89 ± 0.03	0.823 ± 0.026	0.75 ± 0.02
x1 = 1	936.5 ± 0.2	932 ± 0.2	927.8 ± 0.2	923.5 ± 0.2	0.94 ± 0.03	0.87 ± 0.03	0.82 ± 0.03	0.75 ± 0.02

— the NIST ThermoML archive (doi:10.1021/je400917j)
